Earlier results on one substance are cited in US6525025B2, “Gamma-ketoacid dipeptides as inhibitors of caspase-3” (Merck Frosst Canada & Co., priority 2000, dated 2003).

One data set concerns the target T1, caspase-3 (Homo sapiens, UniProt P42574).
T1 sequence (P42574 29-175 limits assumed): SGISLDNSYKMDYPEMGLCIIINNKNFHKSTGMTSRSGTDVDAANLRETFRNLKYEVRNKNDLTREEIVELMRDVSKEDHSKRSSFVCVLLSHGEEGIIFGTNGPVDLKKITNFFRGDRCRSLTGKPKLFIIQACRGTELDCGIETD
T1 sequence (P42574 176-277 limits assumed): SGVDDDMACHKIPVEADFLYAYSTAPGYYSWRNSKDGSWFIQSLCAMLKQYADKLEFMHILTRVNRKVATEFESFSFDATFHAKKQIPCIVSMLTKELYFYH

The target in a further data set is T2, caspase-1 (Homo sapiens, UniProt P29466).
T2 sequence (P29466 120-297 limits assumed): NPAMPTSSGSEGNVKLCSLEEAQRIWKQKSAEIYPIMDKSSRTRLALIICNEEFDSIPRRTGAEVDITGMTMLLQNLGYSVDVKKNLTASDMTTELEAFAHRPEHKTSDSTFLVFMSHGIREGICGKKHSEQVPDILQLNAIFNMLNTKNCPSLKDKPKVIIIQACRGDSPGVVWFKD
T2 sequence (P29466 317-404 limits assumed): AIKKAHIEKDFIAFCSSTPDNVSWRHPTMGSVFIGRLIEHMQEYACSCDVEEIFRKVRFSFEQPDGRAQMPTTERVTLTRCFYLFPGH

Take Ac-YVAD-CHO: the inhibition constant (Ki) (commonly the dissociation constant of the complex between target and ligand, obtained from inhibition or displacement) on caspase-3 is 12 µM; at caspase-1 it was less than 0.001 µM.
